Experimental data: patent US20240215577A1, “FUNGICIDAL PYRIDONES” (FMC Corporation, priority 2021, published 2024)

How the values were obtained:
Type in all cases: in vivo
Zymoseptoria tritici = test: Test A: wheat leaf blotch, preventive spray on wheat seedlings; details: 100 = 100% disease control, 0 = no control; for pest or weed control at 50 ppm: Zymoseptoria tritici, read-out: Test A disease control rating
Text: (§1) General protocol for preparing test suspensions for Tests A-F: the test compounds were first dissolved in acetone in an amount equal to 3% of the final volume and then suspended at the desired concentration (in ppm) in acetone and purified water (50/50 mix by volume) containing 250 ppm of the surfactant PEG400 (polyhydric alcohol esters). The resulting test suspensions were then used in Tests A-F.
The test solution was sprayed to the point of run-off on wheat seedlings. The following day the seedlings were inoculated with a spore suspension of Zymoseptoria tritici (the causal agent of wheat leaf blotch) and incubated in a saturated atmosphere at 24° C. for 48 h, and then moved to a growth chamber at 20° C. for 17 days, after which time disease ratings were made.
(§2) A rating of 100 indicates 100% disease control and a rating of 0 indicates no disease control (relative to the controls). A dash (-) indicates the compound was not tested.

[1] = system: Puccinia recondita f. sp. tritici; test: Test B: wheat leaf rust, preventive spray on wheat seedlings; details: 100 = 100% disease control, 0 = no control; for pest or weed control at 50 ppm: Puccinia recondita, read-out: Test B disease control rating
Text: as §1
The test solution was sprayed to the point of run-off on wheat seedlings. The following day the seedlings were inoculated with a spore suspension of Puccinia recondita f. sp. tritici (the causal agent of wheat leaf rust) and incubated in a saturated atmosphere at 20° C. for 24 h, and then moved to a growth chamber at 20° C. for 7 days, after which time visual disease ratings were made.
as §2

[2] = system: Blumeria graminis f. sp. tritici; test: Test C: wheat powdery mildew, preventive spray on wheat seedlings; details: 100 = 100% disease control, 0 = no control; for pest or weed control at 50 ppm: Blumeria graminis, read-out: Test C disease control rating
Text: as §1
The test suspension was sprayed to the point of run-off on wheat seedlings. The following day the seedlings were inoculated with a spore dust of Blumeria graminis f. sp. tritici, (also known as Eysiphe graminis f. sp. tritici, the causal agent of wheat powdery mildew) and incubated in a growth chamber at 20° C. for 8 days, after which time visual disease ratings were made.
as §2

Phakopsora pachyrhizi = test: Test D: Asian soybean rust, preventive spray on soybean seedlings; details: 100 = 100% disease control, 0 = no control; for pest or weed control at 50 ppm: Phakopsora pachyrhizi, 216 h, read-out: Test D disease control rating
Text: as §1
The test solution was sprayed to the point of run-off on soybean seedlings. The following day the seedlings were inoculated with a spore suspension of Phakopsora pachyrhizi (the causal agent of Asian soybean rust) and incubated in a saturated atmosphere at 22° C. for 24 h and then moved to a growth chamber at 22° C. for 8 days, after which time visual disease ratings were made.
as §2

Botrytis cinerea = test: Test E: tomato Botrytis, preventive spray on tomato seedlings; details: 100 = 100% disease control, 0 = no control; for pest or weed control at 50 ppm: Botrytis cinerea, read-out: Test E disease control rating
Text: as §1
The test suspension was sprayed to the point of run-off on tomato seedlings. The following day the seedlings were inoculated with a spore suspension of Botrytis cinerea (the causal agent of tomato Botrytis) and incubated in a saturated atmosphere at 20° C. for 48 h, and then moved to a growth chamber at 24° C. for 3 days, after which time visual disease ratings were made.
as §2

Alternaria solani = test: Test F: tomato early blight, preventive spray on tomato seedlings; details: 100 = 100% disease control, 0 = no control; for pest or weed control at 50 ppm: Alternaria solani, read-out: Test F disease control rating
Text: as §1
The test suspension was sprayed to the point of run-off on tomato seedlings. The following day the seedlings were inoculated with a spore suspension of Alternaria solani (the causal agent of tomato early blight) and incubated in a saturated atmosphere at 27° C. for 48 h, and then moved to a growth chamber at 20° C. for 3 days, after which time visual disease ratings were made.
as §2

| Structure (SMILES) | Test A disease control rating (Zymoseptoria tritici; 50 ppm) [%] | Test B disease control rating ([1]; 50 ppm) [%] | Test C disease control rating ([2]; 50 ppm) [%] | Test D disease control rating (Phakopsora pachyrhizi; 50 ppm) [%] | Test E disease control rating (Botrytis cinerea; 50 ppm) [%] | Test F disease control rating (Alternaria solani; 50 ppm) [%] | also measured |
| --- | --- | --- | --- | --- | --- | --- | --- |
| Cn1cc(-c2ccc(F)cc2F)c(-c2ccc(F)cc2F)c(Cl)c1=O [Compound 41] | 100 | 96 | 96 | 69 | 91 | 91 | – |
| Cn1cc(-c2cc(F)ccc2Cl)c(-c2ccc(F)cc2Cl)c(C#N)c1=O [Compound 14] | 100 | 100 | 0 | 0 | 96 | 0 | – |
| COc1ccc(Cl)c(-c2cn(C)c(=O)c(C)c2-c2ccc(F)cc2Cl)c1 [Compound 43, 4-(2-chloro-4-fluorophenyl)-5-(2-chloro-5-methoxyphenyl)-1,3-dimethyl-2(1H)-pyridinone] | – | – | – | – | – | – | pest or weed control at 50 ppm (Zymoseptoria tritici; 50 ppm): 100%; pest or weed control at 50 ppm ([1]; 50 ppm): 100%; pest or weed control at 50 ppm ([2]; 50 ppm): 100%; pest or weed control at 50 ppm (Phakopsora pachyrhizi; 50 ppm): 97%; pest or weed control at 50 ppm (Botrytis cinerea; 50 ppm): 98%; pest or weed control at 50 ppm (Alternaria solani; 50 ppm): 100% |
| COc1cc(OC)c(Cl)c(-c2cn(OC)c(=O)c(Cl)c2-c2ccc(F)cc2Cl)c1 [Compound 22, 3-chloro-4-(2-chloro-4-fluorophenyl)-5-(2-chloro-3,5-dimethoxyphenyl)-1-methoxy-2(1H)-pyridinone] | – | – | – | – | – | – | pest or weed control at 50 ppm (Zymoseptoria tritici; 50 ppm): 99%; pest or weed control at 50 ppm ([1]; 50 ppm): 100%; pest or weed control at 50 ppm ([2]; 50 ppm): 76%; pest or weed control at 50 ppm (Phakopsora pachyrhizi; 50 ppm): 97%; pest or weed control at 50 ppm (Botrytis cinerea; 50 ppm): 98%; pest or weed control at 50 ppm (Alternaria solani; 50 ppm): 99% |
| Cn1cc(-c2cc(F)ccc2Cl)c(-c2ccc(F)cc2Cl)c(Cl)c1=O [Compound 1] | 100 | 100 | 0 | 0 | 98 | 46 | – |
| COc1ccc(Cl)c(-c2cn(C)c(=O)c(Cl)c2-c2cccc(F)c2F)c1 [Compound 64] | 98 | 100 | 87 | 87 | 96 | 100 | – |
| CCCn1cc(-c2cc(OC)ccc2Cl)c(-c2ccc(F)cc2Cl)c(Cl)c1=O [Compound 76] | 63 | 55 | 0 | 0 | 96 | 0 | – |
| Cn1cc(-c2ccc(F)cc2Cl)c(-c2c(F)cccc2F)c(Cl)c1=O [Compound 16] | 100 | 97 | 0 | 68 | 96 | 31 | – |
| Cc1c(-c2ccc(F)cc2Cl)c(-c2cc(F)ccc2Cl)cn(C)c1=O [Compound 18] | 100 | 100 | 94 | 96 | 98 | 99 | – |
| COc1cc(OC)c(Cl)c(-c2cn(OCC(F)F)c(=O)c(Cl)c2-c2ccc(F)cc2Cl)c1 [Compound 37] | 68 | 99 | 0 | 87 | 88 | 0 | – |
| COc1ccc(-c2c(-c3cc(OC)ccc3Cl)cn(C)c(=O)c2Cl)c(Cl)c1 [Compound 69] | 100 | 100 | 99 | 79 | 98 | 100 | – |
| Cn1cc(-c2cccc([N+](=O)[O-])c2)c(-c2ccc(F)cc2Cl)c(Cl)c1=O [Compound 66] | 42 | 80 | 0 | 0 | 79 | 0 | – |
| COc1cc(-c2cn(C)c(=O)c(Cl)c2-c2ccc(F)cc2F)ccc1Br [Compound 21] | 70 | 96 | 0 | 0 | 94 | 91 | – |
| COc1cc(OC)cc(-c2cn(C)c(=O)c(C)c2-c2ccc(F)cc2Cl)c1 [Compound 12] | 100 | 99 | 40 | 83 | 92 | 99 | – |
| Cn1cc(-c2cc(F)ccc2Cl)c(-c2ccc(F)cc2Cl)c(I)c1=O [Compound 2] | 100 | 98 | 0 | 0 | 91 | 33 | – |
| COc1cc(OC)cc(-c2cn(C)c(=O)c(Cl)c2-c2ccc(F)cc2Cl)c1 [Compound 3, 3-chloro-4-(2-chloro-4-fluorophenyl)-5-(3,5-dimethoxyphenyl)-1-methyl-2(11)-pyridinone] | 99 | 100 | 0 | 65 | 100 | 100 | – |
| COc1cccc(-c2c(-c3ccc(F)cc3Cl)c(C#N)c(=O)n(C)c2C)c1 [Compound 6] | – | – | – | – | – | – | Test A disease control rating (Zymoseptoria tritici; 250 ppm): 0%; Test B disease control rating ([1]; 250 ppm): 0%; Test C disease control rating ([2]; 250 ppm): 89%; Test D disease control rating (Phakopsora pachyrhizi; 250 ppm): 0%; Test E disease control rating (Botrytis cinerea; 250 ppm): 0%; Test F disease control rating (Alternaria solani; 250 ppm): 0% |
